Results on 18 molecules are retold here after US9718828B2 (MERCK SHARP & DOHME CORP., priority 2011, dated 2017).

The target in the first assay is hBTK (full-length BTK, 6HIS-tag cleaved) (Homo sapiens (Human), UniProt Q06187). Kind of assay: BTK enzymatic activity, LANCE TR-FRET assay (Assay Method C). The conditions noted are these: LANCE TR-FRET, 50 pM hBTK, 25 μM ATP; class 100-1000 is given as ≧100 nM-<1 μM; read-out: IC50 Btk activity values - Assay Method C. The assay is classed as biochemical. For orientation: Time-resolved FRET reads energy transfer from a long-lived donor to a nearby acceptor.
hBTK (full-length BTK, 6HIS-tag cleaved), sequence (Q06187 whole entry): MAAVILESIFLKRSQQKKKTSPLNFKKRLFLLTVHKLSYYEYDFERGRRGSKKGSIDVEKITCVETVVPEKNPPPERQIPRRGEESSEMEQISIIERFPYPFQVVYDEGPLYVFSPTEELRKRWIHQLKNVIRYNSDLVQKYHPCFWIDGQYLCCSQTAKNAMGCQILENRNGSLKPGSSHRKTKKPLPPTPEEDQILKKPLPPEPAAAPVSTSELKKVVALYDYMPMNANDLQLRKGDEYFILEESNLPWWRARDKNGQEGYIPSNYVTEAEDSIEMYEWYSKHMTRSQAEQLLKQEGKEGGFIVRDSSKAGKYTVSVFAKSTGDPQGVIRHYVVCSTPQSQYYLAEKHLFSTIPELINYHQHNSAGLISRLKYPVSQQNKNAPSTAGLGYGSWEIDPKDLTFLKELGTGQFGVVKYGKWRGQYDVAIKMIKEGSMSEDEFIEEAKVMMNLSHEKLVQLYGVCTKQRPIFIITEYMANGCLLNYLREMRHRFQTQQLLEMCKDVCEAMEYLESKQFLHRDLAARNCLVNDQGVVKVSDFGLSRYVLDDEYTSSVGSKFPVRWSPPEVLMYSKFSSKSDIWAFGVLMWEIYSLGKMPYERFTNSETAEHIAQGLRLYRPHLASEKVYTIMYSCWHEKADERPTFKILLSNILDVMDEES
Take `Cc1ccnc(NC(=O)c2ccc(-c3nc([C@@H]4CCCN(C(=O)C5(C)COC5)C4)n4c(Cl)cnc(N)c34)cc2)c1` [Example 446, 4-(8-amino-5-chloro-3-{(3R)-1-[(3-methyloxetan-3-yl)carbonyl]piperidin-3-yl}imidazo[1,5-a]pyrazin-1-yl)-N-(4-methylpyridin-2-yl)benzamide]: the IC50 was less than 0.01 µM.

Turning to `CC1(C(=O)N2CCC[C@@H](c3nc(-c4ccc(C(=O)Nc5cc(C(F)(F)F)ccn5)cc4F)c4c(N)ncc(Cl)n34)C2)COC1` [Example 447, 4-(8-amino-5-chloro-3-{(3R)-1-[(3-methyloxetan-3-yl)carbonyl]piperidin-3-yl}imidazo[1,5-a]pyrazin-1-yl)-3-fluoro-N-[4-(trifluoromethyl)pyridin-2-yl]benzamide], the half-inhibitory concentration (IC50) was less than 0.01 µM. `Cc1ccnc(NC(=O)c2ccc(-c3nc([C@@H]4CCCN(C(=O)C5(C)COC5)C4)n4c(Cl)cnc(N)c34)c(F)c2)c1` [Example 448, 4-(8-amino-5-chloro-3-{(3R)-1-[(3-methyloxetan-3-yl)carbonyl]piperidin-3-yl}imidazo[1,5-a]pyrazin-1-yl)-3-fluoro-N-(4-methylpyridin-2-yl)benzamide]: the 50% inhibitory concentration (IC50) was less than 0.01 µM. Regarding `COCc1cnc(N)c2c(-c3ccc(C(=O)Nc4cc(C(F)(F)F)ccn4)cc3)nc([C@@H]3CCCN(C(=O)C4(C)COC4)C3)n12` [Example 449, 4-[8-amino-5-(methoxymethyl)-3-{(3R)-1-[(3-methyloxetan-3-yl)carbonyl]piperidin-3-yl}imidazo[1,5-a]pyrazin-1-yl]-N-[4-(trifluoromethyl)pyridin-2-yl]benzamide], the IC50 is less than 0.01 µM. On to `COCc1cnc(N)c2c(-c3ccc(C(=O)Nc4cc(C(F)(F)F)ccn4)cc3)nc([C@@H]3CC[C@H](C)N(C(=O)C4(C)COC4)C3)n12` [Example 450, 4-[8-amino-5-(methoxymethyl)-3-{(3R,6S)-6-methyl-1-[(3-methyloxetan-3-yl)carbonyl]piperidin-3-yl}imidazo[1,5-a]pyrazin-1-yl]-N-[4-(trifluoromethyl)pyridin-2-yl]benzamide], for which the IC50 was less than 0.01 µM.

Turning to `COCc1cnc(N)c2c(-c3ccc(C(=O)Nc4cc(C(F)(F)F)ccn4)cc3F)nc([C@@H]3CCCN(C(=O)C4(C)COC4)C3)n12` [Example 451, 4-[8-amino-5-(methoxymethyl)-3-{(3R)-1-[(3-methyloxetan-3-yl)carbonyl]piperidin-3-yl}imidazo[1,5-a]pyrazin-1-yl]-3-fluoro-N-[4-(trifluoromethyl)pyridin-2-yl]benzamide], the concentration for half-maximal inhibition (IC50) is less than 0.01 µM. For the molecule `COCC(=O)N1CCC[C@@H](c2nc(-c3ccc(C(=O)Nc4cc(C(F)(F)F)ccn4)cc3F)c3c(N)ncc(COC)n23)C1` [Example 452, 4-{8-amino-3-[(3R)-1-(methoxyacetyl)piperidin-3-yl]-5-(methoxymethyl)imidazo[1,5-a]pyrazin-1-yl}-3-fluoro-N-[4-(trifluoromethyl)pyridin-2-yl]benzamide], the 50% inhibitory concentration (IC50) is less than 0.01 µM. For the molecule `Cc1cnc(N)c2c(-c3ccc(C(=O)Nc4cc(C(F)(F)F)ccn4)cc3)nc([C@@H]3CCCN(C(=O)C4(C)COC4)C3)n12` [Example 453, 4-(8-amino-5-methyl-3-{(3R)-1-[(3-methyloxetan-3-yl)carbonyl]piperidin-3-yl}imidazo[1,5-a]pyrazin-1-yl)-N-[4-(trifluoromethyl)pyridin-2-yl]benzamide], the concentration for half-maximal inhibition (IC50) was less than 0.01 µM. On the same count and under the same terms, the figure for `Cc1cnc(N)c2c(-c3ccc(C(=O)Nc4cc(C(C)(F)F)ccn4)cc3)nc([C@@H]3CCCN(C(=O)C4(C)COC4)C3)n12` [Example 454, 4-(8-amino-5-methyl-3-{(3R)-1-[(3-methyloxetan-3-yl)carbonyl]piperidin-3-yl}imidazo[1,5-a]pyrazin-1-yl)-N-[4-(1,1-difluoroethyl)pyridin-2-yl]benzamide] is less than 0.01 µM; for `CCc1ccnc(NC(=O)c2ccc(-c3nc([C@@H]4CCCN(C(=O)C5(C)COC5)C4)n4c(C)cnc(N)c34)cc2)c1` [Example 455, 4-(8-amino-5-methyl-3-{(3R)-1-[(3-methyloxetan-3-yl)carbonyl]piperidin-3-yl}imidazo[1,5-a]pyrazin-1-yl)-N-(4-ethylpyridin-2-yl)benzamide] it is less than 0.01 µM; for `Cc1cnc(N)c2c(-c3ccc(C(=O)Nc4cc(OC5CC5)ccn4)cc3)nc([C@@H]3CCCN(C(=O)C4(C)COC4)C3)n12` [Example 456, 4-(8-amino-5-methyl-3-{(3R)-1-[(3-methyloxetan-3-yl)carbonyl]piperidin-3-yl}imidazo[1,5-a]pyrazin-1-yl)-N-[4-(cyclopropyloxy)pyridin-2-yl]benzamide] it is less than 0.01 µM. For the molecule `Cc1cnc(N)c2c(-c3ccc(C(=O)Nc4cc(OC5CC5)ccn4)cc3)nc([C@@H]3CCCN(C(=O)C4CC4)C3)n12` [Example 457, 4-{8-amino-3-[(3R)-1-(cyclopropylcarbonyl)piperidin-3-yl]-5-methylimidazo[1,5-a]pyrazin-1-yl}-N-[4-(cyclopropyloxy)pyridin-2-yl]benzamide], the 50% inhibitory concentration (IC50) is less than 0.01 µM.

For `Cc1cnc(N)c2c(-c3ccc(C(=O)Nc4cc(C(F)F)ccn4)cc3)nc([C@@H]3CCCN(C(=O)C4(C)COC4)C3)n12` [Example 458, 4-(8-amino-5-methyl-3-{(3R)-1-[(3-methyloxetan-3-yl)carbonyl]piperidin-3-yl}imidazo[1,5-a]pyrazin-1-yl)-N-[4-(difluoromethyl)pyridin-2-yl]benzamide], the IC50 was less than 0.01 µM. As for `COc1ccnc(NC(=O)c2ccc(-c3nc([C@@H]4CCCN(C(=O)C5(C)COC5)C4)n4c(C)cnc(N)c34)cc2)c1` [Example 459, 4-(8-amino-5-methyl-3-{(3R)-1-[(3-methyloxetan-3-yl)carbonyl]piperidin-3-yl}imidazo[1,5-a]pyrazin-1-yl)-N-(4-methoxypyridin-2-yl)benzamide], the IC50 is less than 0.01 µM. Take `COc1ccnc(NC(=O)c2ccc(-c3nc([C@@H]4CCCN(C(C)=O)C4)n4c(C)cnc(N)c34)cc2)c1` [Example 460, 4-{3-[(3R)-1-acetylpiperidin-3-yl]-8-amino-5-methylimidazo[1,5-a]pyrazin-1-yl}-N-(4-methoxypyridin-2-yl)benzamide]: the IC50 is less than 0.01 µM. Still for that read-out and setting: the result for `CC(=O)N1C[C@H](c2nc(-c3ccc(C(=O)Nc4cc(C(F)F)ccn4)cc3F)c3c(N)ncc(C)n23)CC[C@@H]1C` [Example 461, 4-{3-[(3R,6S)-1-acetyl-6-methylpiperidin-3-yl]-8-amino-5-methylimidazo[1,5-a]pyrazin-1-yl}-N-[4-(difluoromethyl)pyridin-2-yl]-3-fluorobenzamide] reads less than 0.01 µM. Regarding `Cc1cnc(N)c2c(-c3ccc(C(=O)Nc4cc(C(F)F)ccn4)cc3F)nc([C@@H]3CC[C@H](C)N(C(=O)C4(C)COC4)C3)n12` [Example 462, 4-(8-amino-5-methyl-3-{(3R,6S)-6-methyl-1-[(3-methyloxetan-3-yl)carbonyl]piperidin-3-yl}imidazo[1,5-a]pyrazin-1-yl)-N-[4-(difluoromethyl)pyridin-2-yl]-3-fluorobenzamide], the IC50 was less than 0.01 µM. For the molecule `CC1(C(=O)N2CCC[C@@H](c3nc(-c4ccc(C(=O)Nc5cc(C(F)(F)F)ccn5)cc4)c4c(N)ncc(C=O)n34)C2)COC1` [Example 464, 4-(8-amino-5-formyl-3-{(3R)-1-[(3-methyloxetan-3-yl)carbonyl]piperidin-3-yl}imidazo[1,5-a]pyrazin-1-yl)-N-[4-(trifluoromethyl)pyridin-2-yl]benzamide], the concentration for half-maximal inhibition (IC50) lay in the range of 0.01 to 0.1 µM.

The same assay, now with this note: Table D; Assay Method C (LANCE TR-FRET), 50 pM hBTK, 25 μM ATP; read-out: IC50 BTK activity value.
Consider `COCc1cnc(N)c2c(-c3ccc(C(=O)Nc4cc(C(F)(F)F)ccn4)cc3)nc([C@@H]3CCCN(C(=O)C4(C)COC4)C3)n12` [Example 449, 4-[8-amino-5-(methoxymethyl)-3-{(3R)-1-[(3-methyloxetan-3-yl)carbonyl]piperidin-3-yl}imidazo[1,5-a]pyrazin-1-yl]-N-[4-(trifluoromethyl)pyridin-2-yl]benzamide], for which the half-inhibitory concentration (IC50) is 0.000656 µM. The same measure, in the same setting: the result for `Cc1cnc(N)c2c(-c3ccc(C(=O)Nc4cc(OC5CC5)ccn4)cc3)nc([C@@H]3CCCN(C(=O)C4(C)COC4)C3)n12` [Example 456, 4-(8-amino-5-methyl-3-{(3R)-1-[(3-methyloxetan-3-yl)carbonyl]piperidin-3-yl}imidazo[1,5-a]pyrazin-1-yl)-N-[4-(cyclopropyloxy)pyridin-2-yl]benzamide] reads 0.000403 µM.

As usually defined, the IC50 is the concentration at which inhibition is half-maximal.
